“And” between values parts separate entries of the source, which are not always exact repeats. Equal entries are not always repeated. Where two headings read alike, the source gives them in different places. No end group written: not given here.
Assays:
[1] = molecular target: T1, TtSlyDFL (full-length SlyD from Thermus thermophilus) (Thermus thermophilus, UniProt Q5SLE7); assay: ITC binding of peptides to full-length TtSlyD; conditions: for ΔH1 / –T · ΔS1 / N1: site 1 (IF domain)
T1 sequence (Q5SLE7 1-149): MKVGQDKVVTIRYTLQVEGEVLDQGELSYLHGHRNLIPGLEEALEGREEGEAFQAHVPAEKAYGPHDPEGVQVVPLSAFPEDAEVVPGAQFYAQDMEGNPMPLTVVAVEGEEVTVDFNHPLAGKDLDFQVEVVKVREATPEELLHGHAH
Protocol: ITC measurements were performed on iTC200 or VP-ITC instruments (GE Healthcare, Chalfont St. Giles, UK). The calorimetric cell (with a total cell volume of 220 μl in the iTC200, or 1400 μl in the VP-ITC) contained 50–200 μM TtSlyDFL dissolved in 20 mM HEPES, 100 mM NaCl, pH 7.5. Peptide samples of 700–2000 μM were titrated into the cell at 20 °C (VP-ITC) or 25 °C (iTC200). The heat generated after each ligand injection was obtained by integration of the calorimetric signal. Resulting binding isotherms were analyzed according to a one-site or two-site binding site model using the Origin software (OriginLab Corp., Northampton, MA, USA).

[2] = molecular target: TtSlyDΔIF (IF domain replaced by the flap loop from human FKBP12) (Thermus thermophilus, UniProt Q5SLE7); format: binding; conditions: ITC one-site model (FKBP domain), 25 °C; for Kd: read-out: KD2
TtSlyDFL = assay: Michaelis-Menten analysis with S2-P25A peptide by NMR lineshape analysis; format: biochemical, Thermus thermophilus; conditions: 25 °C
Protocol: (§1) Having validated the method, we next turned to the longer unmodified peptides of interest here. […] The ^13C shifts of proline in the S2-P25A peptide show the same characteristics as an isolated proline amino acid. […] We determined apparent rate constants for TtSlyDFL and TtSlyDΔIF as a function of peptide concentration (Fig. 7b). The resulting kcat/KM value was 368 ± 4 μM^–1s^–1 for TtSlyDFL, which is a factor of 100–1000 higher compared to results obtained previously for various members of the SlyD family using tetrapeptides or unfolded proteins, and even exceeds those generally reported for FKBPs and other PPIases. […] However, the difference in kcat/KM between TtSlyDFL and TtSlyDΔIF is much smaller than what has been observed using protein substrates, and may simply relate to the lower binding affinity of TtSlyDΔIF relative to TtSlyDFL (in this scenario, KM would be larger for TtSlyDΔIF). In the case of TtSlyDFL we could separate the two parameters, yielding kcat = (0.7 ± 0.1) 10^6 s^–1 and KM = 2.0 ± 0.4 mM.
(§2) Lineshape analysis was performed using MATLAB.
(§3) Activity studies using the 15-residue-long S2-P25A peptide utilized a sample with a uniformly ^13C-labeled proline residue. ^1H–^13C HSQC experiments were used to separate the peptide signals in two dimensions, such that the cis and trans forms could both be detected without overlap. […] One-dimensional ^1H slices of the β and γ protons for the cis and trans forms were extracted from the two-dimensional spectrum, and lineshape analysis was applied. Michaelis-Menten-like studies were performed using a fixed concentration of TtSlyDFL of 0.2 μM and peptide concentrations ranging from 10 to 1000 μM.

TtSlyDΔIF = assay: as above; format: biochemical, Thermus thermophilus; conditions: 25 °C
Protocol: as §1, §2, §3

[3] = Relative population of the cis form of the peptide by NMR; format: physicochemical; conditions: free S2-P25A peptide with 13C-labeled proline (P29); comparison of cis and trans NMR intensities; 25 °C
Protocol: as §1
Activity studies using the 15-residue-long S2-P25A peptide utilized a sample with a uniformly ^13C-labeled proline residue. ^1H–^13C HSQC experiments were used to separate the peptide signals in two dimensions, such that the cis and trans forms could both be detected without overlap. […]

[4] = ITC two-site model, site 2 (FKBP domain) stoichiometry, 25 °C
[5] = ITC two-site model, site 2 (FKBP domain), 25 °C
[6] = ITC two-site model, 20 °C, wild-type TtSlyDFL
[7] = ITC two-site model, site 2 (FKBP domain), 20 °C, wild-type TtSlyDFL
[8] = ITC single binding site model, 25 °C
[9] = ITC two-site model, 25 °C, 5 % DMSO
[10] = ITC two-site model, site 2 (FKBP domain), 25 °C, 5 % DMSO
[11] = S2-P25A peptide as substrate, NMR lineshape analysis

WNPKMKPFIFGARNK-NH2 [S2-plus1]
ΔH1 ([1]; ITC two-site model, 25 °C): –11.4 ± 0.13 kcal/mol
–T · ΔS1 ([1]; ITC two-site model, 25 °C): 2.3 kcal/mol
N2 [1, 4]: 0.94 ± 0.03
ΔH2 [1, 5]: –7.8 ± 0.23 kcal/mol
–T · ΔS2 [1, 5]: 0.4 kcal/mol

RYWNPKMKPFIFG-NH2 [S2-short2]
N1 [1, 6]: 0.72 ± 0.03
ΔH1 [1, 6]: –9.7 ± 0.21 kcal/mol
–T · ΔS1 [1, 6]: 0.9 kcal/mol
N2 [1, 7]: 0.91 ± 0.02
ΔH2 [1, 7]: –5.5 ± 0.34 kcal/mol
–T · ΔS2 [1, 7]: –1.9 kcal/mol

SGLVTRGS-NH2 [SlpA linker P5T]
Kd [1]: 130 ± 20 µM
N2 [1, 8]: 1.76 ± 0.12
ΔH2 [1, 8]: –0.9 ± 0.10 kcal/mol
–T · ΔS2 [1, 8]: –4.4 kcal/mol

VHFGHQTRYWNPKMK-NH2 [S2-minus2]
ΔH1 ([1]; ITC two-site model, 25 °C): –16.1 ± 0.21 kcal/mol
–T · ΔS1 ([1]; ITC two-site model, 25 °C): 8.1 kcal/mol
N2 [1, 4]: 0.99 ± 0.06
ΔH2 [1, 5]: –4.3 ± 0.92 kcal/mol
–T · ΔS2 [1, 5]: –2.3 kcal/mol

TRYWNNKMKNFIFGA-NH2 [S2-P25N/P29N]
N1 [1, 9]: 0.93 ± 0.02
ΔH1 [1, 9]: –16.8 ± 0.12 kcal/mol
–T · ΔS1 [1, 9]: 7.8 kcal/mol
N2 [1, 10]: 1.18 ± 0.18
ΔH2 [1, 10]: –2.3 ± 0.33 kcal/mol
–T · ΔS2 [1, 10]: –4.4 kcal/mol

KAGVHFGHQTRYWNP-NH2 [S2-minus3]
ΔH1 ([1]; ITC two-site model, 25 °C): –17.0 ± 0.73 kcal/mol
–T · ΔS1 ([1]; ITC two-site model, 25 °C): 9.4 kcal/mol
N2 [1, 4]: 1.17 ± 0.06
ΔH2 [1, 5]: –2.1 ± 1.41 kcal/mol
–T · ΔS2 [1, 5]: –4.8 kcal/mol

TRYWNAKMKEFIFGA-NH2 [S2-P25A/P29E]
N1 [1, 9]: 1.13 ± 0.03
ΔH1 [1, 9]: –14.1 ± 0.33 kcal/mol
–T · ΔS1 [1, 9]: 6.1 kcal/mol
N2 [1, 10]: 1.09 ± 0.24
ΔH2 [1, 10]: –5.9 ± 1.91 kcal/mol
–T · ΔS2 [1, 10]: –0.1 kcal/mol
N2 ([2]; 5 % DMSO): 0.84 ± 0.06
ΔH2 ([2]; 5 % DMSO): –6.3 ± 0.58 kcal/mol
–T · ΔS2 ([2]; 5 % DMSO): 0.1 kcal/mol
Kd ([2]; 5 % DMSO): 29 ± 4.62 µM

TRYANPKMKPFIFGA-NH2 [S2-W23A]
ΔH1 ([1]; ITC two-site model, 25 °C): –15.8 ± 0.24 kcal/mol
–T · ΔS1 ([1]; ITC two-site model, 25 °C): 7.5 kcal/mol
N2 [1, 4]: 0.91 ± 0.40
ΔH2 [1, 5]: –2.3 ± 0.97 kcal/mol
–T · ΔS2 [1, 5]: –4.2 kcal/mol
N2 [2]: 0.77 ± 0.02
ΔH2 [2]: –8.1 ± 0.25 kcal/mol
–T · ΔS2 [2]: 1.6 kcal/mol
Kd [2]: 17.1 ± 1.13 µM

TRYWNPKMKEFIFGA-NH2 [S2-P29E]
ΔH1 ([1]; ITC two-site model, 25 °C): –15.8 ± 0.16 kcal/mol
–T · ΔS1 ([1]; ITC two-site model, 25 °C): 7.2 kcal/mol
N2 [1, 4]: 1.02 ± 0.04
ΔH2 [1, 5]: –2.7 ± 0.48 kcal/mol
–T · ΔS2 [1, 5]: –4.5 kcal/mol
N2 [2]: 0.69 ± 0.03
ΔH2 [2]: –10.8 ± 0.27 kcal/mol
–T · ΔS2 [2]: 4.2 kcal/mol
Kd [2]: 13.8 ± 0.88 µM

TRYWNAKMKPFIFGA-NH2 [S2-P25A]
ΔH1 ([1]; ITC two-site model, 25 °C): –16.6 ± 0.16 kcal/mol
–T · ΔS1 ([1]; ITC two-site model, 25 °C): 7.2 kcal/mol
N2 [1, 4]: 1.02 ± 0.04
ΔH2 [1, 5]: –8.5 ± 0.82 kcal/mol
–T · ΔS2 [1, 5]: 1.5 kcal/mol
N2 [2]: 0.91 ± 0.01
ΔH2 [2]: –11.7 ± 0.24 kcal/mol
–T · ΔS2 [2]: 5.0 kcal/mol
Kd [2]: 12.1 ± 0.76 µM
kcat/KM (TtSlyDFL; S2-P25A as substrate (cis concentration), 0.2 μM enzyme, Michaelis-Menten fitting): 3.68 ± 0.04 10^8 M^−1s^−1 and 3.7 10^8 M^−1s^−1
kcat (TtSlyDFL; S2-P25A as substrate): 0.7 ± 0.1 10^6 s^–1
kcat/KM (TtSlyDFL; [11]): 368 ± 4 μM^–1s^–1
kcat/KM (TtSlyDΔIF; S2-P25A as substrate (cis concentration), 0.2 μM enzyme): 2.5 10^8 M^−1s^−1
kcat/KM (TtSlyDΔIF; [11]): 248 ± 1 μM^–1s^–1
relative population of the cis form (cis content) [3]: 14.5 ± 1%

KMKPFIFGARNKVHI-NH2 [S2-plus2]
ΔH1 ([1]; ITC two-site model, 25 °C): –13.1 ± 0.14 kcal/mol
–T · ΔS1 ([1]; ITC two-site model, 25 °C): 3.9 kcal/mol
N2 [1, 4]: 0.75 ± 0.04
ΔH2 [1, 5]: –8.4 ± 0.39 kcal/mol
–T · ΔS2 [1, 5]: 1.2 kcal/mol

YWNPKMKPFIF-NH2 [S2-short4]
N1 [1, 6]: 0.73 ± 0.24
ΔH1 [1, 6]: –10.7 ± 2.33 kcal/mol
–T · ΔS1 [1, 6]: 2.7 kcal/mol
N2 [1, 7]: 0.87 ± 0.23
ΔH2 [1, 7]: –6.3 ± 3.02 kcal/mol
–T · ΔS2 [1, 7]: –0.9 kcal/mol

GHQTRYWNPKMKPFI-NH2 [S2-minus1]
ΔH1 ([1]; ITC two-site model, 25 °C): –16.6 ± 0.12 kcal/mol
–T · ΔS1 ([1]; ITC two-site model, 25 °C): 8.2 kcal/mol
N2 [1, 4]: 0.82 ± 0.02
ΔH2 [1, 5]: –11.1 ± 0.29 kcal/mol
–T · ΔS2 [1, 5]: 4.1 kcal/mol

From paper PMC5034536, “Molecular insights into substrate recognition and catalytic mechanism of the chaperone and FKBP peptidyl-prolyl isomerase SlyD” (BMC Biology, 2016)
